The target of assay [1] is MMP12 (Homo sapiens, UniProt P39900). The assay is described as follows: MMP12 fluorogenic peptide biochemical assay. The text has this:
Source of enzymes for biochemical assays: Except for ADAM17 and MT1-MMP, all recombinant human MMPs and ADAMs were obtained from R&D Systems (Minneapolis, Minn.). […] MT1-MMP was obtained from US Biological (Swampscott, Mass.) with a catalog number of M2429. Porcine ADAM17 was purified in house from porcine spleen.
Substrates for biochemical assays: Fluorogenic Peptide substrate, (7-methoxycoumarin-4-yl)acetyl-Pro-Leu-Gly-Leu-(3-[2,4-dinitrophenyl]-L-2,3-diaminopropionyl)-Ala-Arg-NH2 (SEQ ID NO: 46), was obtained from R&D Systems (Minneapolis, Minn.) with a catalog number of ES001. It was used as substrate for MMP1, MMP2, MMP7, MMP8, MMP9, MMP12, MMP13, and MT1-MMP. Fluorogenic Peptide substrate, (7-methoxycoumarin-4-yl)acetyl-Arg-Pro-Lys-Pro-Val-Glu-Nva-Trp-Arg-Lys(2,4-dinitrophenyl)-NH2 (SEQ ID NO: 47), was obtained from R&D Systems with a catalog number of ES002. It was used as substrate for MMP3 and MMP10. […]
In general, 5 mM compound stock was prepared in DMSO. […] The plate was read on a plate reader with excitation of 320 nm and emission of 405 nm. Percentage of inhibition was calculated for each concentration and IC50 value was generated from curve fitting. […]

The subject of assay [2] is BT474 cells. Kind of assay: Cell proliferation assay (cell counting, BrdU incorporation). The format is cell-based, human. The settings on record: Her-2 overexpressing BT474 cells. For orientation: Incorporation of labelled thymidine or its analogues reports DNA synthesis.
Procedure: Proliferation assays were routinely performed with two protocols: cell counting and BrdU incorporation assay. For cell counting, cells (1×10^5) were seeded in each well of 12 well plates and cultured overnight. Then, cells were treated for 6 days with drugs and compounds as indicated in individual experiments. Culture media were replaced with fresh media containing the same concentrations of drugs and compounds after the first 3 days of treatment. Viable cells were counted with hemacytometers immediately after trypan blue staining.
The BrdU incorporation assay was performed using a colorimetric Cell Proliferation ELISA kit per manufacturer's instruction (#1647229, Roche Molecular Biochemicals), measuring DNA synthesis in proliferating cells. Briefly, cells (5−10×10^3) were seeded in each well of 96 well plates and cultured overnight. […] Finally, 100 μl/well of substrate solution was added and the results were obtained using a microplate reader (Spectra Max PLUS, Molecular Devices) during color development. Multiple readings at various time points were obtained and results in the linear range of the assay were obtained. […]
After varying periods of cell culture (2-6 days), the cell cultures were harvested and cell growth was assessed by cell count and BRdU incorporation using standard protocols.

pIC50: −log10 of the molar value.

From patent US9345677B2, “Compositions, methods and kits relating to HER-2 cleavage” (Incyte Corporation, priority 2003, dated 2016) come the findings set out here.

Sequence of MMP12 (P39900 106-470): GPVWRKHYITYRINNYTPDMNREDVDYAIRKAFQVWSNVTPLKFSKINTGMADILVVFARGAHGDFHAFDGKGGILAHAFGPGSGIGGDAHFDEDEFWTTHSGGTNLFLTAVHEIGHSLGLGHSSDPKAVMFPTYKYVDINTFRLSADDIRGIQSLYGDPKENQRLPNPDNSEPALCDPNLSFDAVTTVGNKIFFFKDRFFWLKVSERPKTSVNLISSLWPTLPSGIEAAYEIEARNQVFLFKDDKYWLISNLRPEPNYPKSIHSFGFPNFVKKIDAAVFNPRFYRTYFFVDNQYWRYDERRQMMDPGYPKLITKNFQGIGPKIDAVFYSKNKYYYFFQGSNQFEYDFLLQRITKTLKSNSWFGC

What is called pIC50 is the IC50 on a negative log10 scale, so that one unit is a factor of ten. A lower pIC50 goes with a large IC50. `Cc1cc([N+](=O)[O-])ccc1N1CCN(C(=O)[C@@H]2[C@@H](C(=O)NO)CC3(CC3)CN2C)CC1` [Compound 5, (6S,7S)-N-hydroxy-5-methyl-6-{[4-(2-methyl-4-nitrophenyl)piperazin-1-yl]-carbonyl}-5-azaspiro[2.5]octane-7-carboxamide] showed a pIC50 in assay [1] of 6.23. Besides, the “effect on antiproliferative activity of a suboptimal dose of Herceptin” value in assay [2] is “synergistically enhances”.
